Reference: PMC12333940, “A prometabolite strategy inhibits cardiometabolic disease in an ApoE^–/– murine model of atherosclerosis” (JCI Insight, 2025)
Values joined by “and” are separate entries in the source; they are usually repeats but may differ in a detail not shown here. Equal entries are not always repeated.

Columns and labels:
[1] = Body weight during treatment; format: in vivo, ApoE^–/– mice; details: in g (unit assumed)
Excerpt: SerBut water was pH adjusted using 10 M NaOH to a final pH of 7.4. […] After 6 weeks, mice were euthanized. […] The liver was harvested and part was homogenized in tissue protein extraction reagent buffer (Invitrogen, 78510) supplemented with protease inhibitor mini tablets (Thermo Fisher Scientific, PIA32955) for Western blotting and qPCR.

[2] = tested on: bone marrow–derived dendritic cells (BMDCs); design: method as in PMID 38561491, PMID 27897220; details: BMDCs ref 28, 40; cited from earlier work
HDAC = tested on: HDAC; design: method as in PMID 38561491; details: RAW 264.7 ref 28; cited from earlier work

Compound: CCCC(=O)OC[C@H](N)C(=O)O [SerBut, O-butyryl-L-serine]
- Weight ([1]; week 0, 150 mM in drinking water with HFD, individual mice): 18.7 and 18.3 and 20 and 18.8 and 17 and 19.2 and 18.6 and 18.9 and 20.5 and 19.6
- Weight ([1]; week 2): 20.9 and 20.5 and 20.2 and 18.7 and 20 and 20.6 and 20.3 and 21.2
- Weight ([1]; week 2.5): 21.2 and 20.6 and 21.6 and 19.8 and 21.4 and 21.5 and 20.7 and 21.9
- Weight ([1]; week 5): 24 and 22.2 and 21.8 and 20.2 and 21.1 and 22.4 and 21.4 and 22.7
- Weight ([1]; week 6): 23.8 and 21.9 and 22.9 and 19.2 and 21.6 and 22.7 and 21.4 and 23.1
- inflammatory marker expression [2]: suppressed inflammatory marker expression
- HDAC inhibition activity (HDAC): maintained attenuated HDAC inhibition activity
